Results on two compounds are retold here after PMC7326016, “Structural Studies of Glutamate Dehydrogenase (Isoform 1) From Arabidopsis thaliana, an Important Enzyme at the Branch-Point Between Carbon and Nitrogen Metabolism” (Frontiers in Plant Science, 2020).

Assay [1] addresses T1, Glutamate dehydrogenase isoform 1 (AtGDH1) (Arabidopsis thaliana, UniProt Q43314).
T1 construct: gene GDH1; full-length, 411 residues, homohexamer
Description: ITC (in presence of […] 2OG) and crystal structure at […] Å. The assay is classed as binding.

For assay [2], the target named is T1, Glutamate dehydrogenase isoform 1 (AtGDH1). Description: crystal structure at […] Å (one closed subunit; ligand captured from E. coli; polder map). The assay is classed as binding.

T1 sequence (Q43314 whole entry, canonical isoform): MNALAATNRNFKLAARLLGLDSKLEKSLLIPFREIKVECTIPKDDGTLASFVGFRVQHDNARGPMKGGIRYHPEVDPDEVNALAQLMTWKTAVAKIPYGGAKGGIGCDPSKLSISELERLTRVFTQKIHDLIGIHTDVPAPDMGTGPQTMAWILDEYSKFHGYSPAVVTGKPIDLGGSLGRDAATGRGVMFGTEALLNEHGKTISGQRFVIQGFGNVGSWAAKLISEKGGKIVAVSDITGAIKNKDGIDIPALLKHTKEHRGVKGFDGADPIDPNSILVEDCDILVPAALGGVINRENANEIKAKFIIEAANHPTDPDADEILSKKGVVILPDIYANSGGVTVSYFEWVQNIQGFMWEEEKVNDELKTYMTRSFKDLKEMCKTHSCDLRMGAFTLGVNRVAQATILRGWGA

By Kd is commonly meant the constant that tells how readily two partners part at equilibrium. On to `NC(=O)c1ccc[n+]([C@@H]2O[C@H](COP(=O)([O-])OP(=O)(O)OC[C@H]3O[C@@H](n4cnc5c(N)ncnc54)[C@H](O)[C@@H]3O)[C@@H](O)[C@H]2O)c1` [NAD^+], for which the Kd in assay [1] amounted to 72 ± 6 µM.

In the case of `O=C(O)CCC(=O)C(=O)O` [2-oxoglutarate], the “crystal structure at 2.03 Å (one closed subunit); ligand captured from E. coli; p” value in assay [2] is “the closed conformation subunit contains 2OG, the GDH reaction product, bound in the active site”.
